Laboratory results as given in patent publication US3955959A, “Herbicide for use in transplanted rice” (priority 1974, dated 1976).
Where “and” joins values, the source holds several entries; their conditions need not be identical. Equal values may be shown once.

Key:
[1] = test system: Cyperus difformis; assay: Example 2 field test, weed control, Chia Yi, Taiwan; assay type: in vivo; settings: obs. 63 DAT
Description: (§4) In the field tests of the herbicide of this invention with transplanted rice, the rice seedlings were grown in conventional manner, by seeding the rice in a typical seedbed of sandy loam to clay soil of the country wherein the test was conducted. For laboratory and greenhouse work the seedlings were obtained by seeding rice in a mixture of soil, e.g., Ray silt loam, and peat in wood flats. For purposes of testing the herbicides on younger rice seedlings (infant or Dapog) the rice was usually allowed to grow for 6-15 days before lifting for transplanting. Older (ordinary) rice plants were usually grown for a period of about 2-3 weeks, or as much as about 7 weeks before lifting. Since the period of growth is dependent upon climatic conditions, a better measure of when to transplant the rice seedling is the leaf stage of growth; for infant or Dapog rice the seedling is lifted at the 1.5-2 leaf stage of growth, and for ordinary seedlings at the 2.5-5 leaf stage. The seedlings were then transplanted to the test plots for evaluation of the herbicide for injury against weed species present with the transplanted rice. The herbicides were then applied to the growth medium of the weeds and transplant rice, either preemergent or postemergent with respect to the weeds and postemergent with respect to the transplanted rice. […] Application rates given in the tables refer to the amount of active ingredient used.

[2] = test system: weeds in upland direct-seeded rice; assay: Example 7 overall; assay type: in vivo
Description: In a further comparative study of the preemergence activity of Herbicides A and B, a variety of weeds and upland direct-seeded rice were tested under greenhouse conditions. The present invention is not concerned with the use of Herbicide A in direct-seeded rice. The primary purpose of the experimental work in this example is to compare relative herbicidal activity of Herbicides A and B against the weeds shown in Table 7; most of these weeds were not available for tests with transplanted rice. Although the relative selectivity of these herbicides in upland rice is also evident, that aspect of the tests is more or less incidental to the purpose of this example.
In this example, rice seeds and seeds of the weeds shown in Table 7 were sown in Ray silt loam soil at a depth of 0.5 inch (1.27 cm) in containers for the soil in a greenhouse. Herbicides A and B were applied to the surface of the soil at a spray volume equivalent to 20 gals/acre (187.1 liters/hectare), followed by 0.5 in (1.27 cm) of overhead irrigation. Temperature and relative humidity in the greenhouse were on the order of 85°F (29°C) and 75%, respectively. Observations were made at 21-28 days after seeding. […]

[3] = test system: Sedges: Cd, Ci, Fl (Cyperus difformis, Cyperus iria, Fimbristylis littoralis); assay: Example 3 field test on Dapog rice, weed control, Munoz, Philippines; assay type: in vivo; settings: obs. 42 DAT
Text: (§1) Treatments were replicated four times.

[4] = test system: Grass: Ec and Ecol (Echinochloa crusgalli, Echinochloa colonum); assay: as above; assay type: in vivo; settings: obs. 42 DAT
Text: as §1

[5] = test system: transplanted rice; assay: Example 1 field test, rice yield; assay type: in vivo, rice (Watanabe variety)
Text: In the field test 48 day-old seedlings (Watanabe variety) were transplanted to plots 2.5 × 6 m. seeded with the weed seeds indicated in Table 1. At 5 and 10 DAT periods, the herbicides were applied to the plants (now at the 1.2 and 2.0 leaf stage, respectively, of grass weed) at the indicated rate in kilograms per hectare (kg/ha). The weed control and rice injury results for 3 replications are reported in percentages as of the indicated times of observation. The percentages given in the "Perennials" column are based on the weight of the weeds at 63 DAT, i.e., 42 gms/3.6 m^2 for the weedy check.

[6] = test system: ordinary transplanted rice; assay: Example 4 field test, rice yield; assay type: in vivo, rice (Fortuna variety)
Description: (§2) In the tests described in the tables below, the herbicides were formulated and used in granular form in conventional manner. […] The commercial herbicide used was a granular product having 5% active ingredient.
(§3) In the field tests of the herbicide of this invention with transplanted rice, the rice seedlings were grown in conventional manner, by seeding the rice in a typical seedbed of sandy loam to clay soil of the country wherein the test was conducted. For laboratory and greenhouse work the seedlings were obtained by seeding rice in a mixture of soil, e.g., Ray silt loam, and peat in wood flats. For purposes of testing the herbicides on younger rice seedlings (infant or Dapog) the rice was usually allowed to grow for 6-15 days before lifting for transplanting. Older (ordinary) rice plants were usually grown for a period of about 2-3 weeks, or as much as about 7 weeks before lifting. Since the period of growth is dependent upon climatic conditions, a better measure of when to transplant the rice seedling is the leaf stage of growth; for infant or Dapog rice the seedling is lifted at the 1.5-2 leaf stage of growth, and for ordinary seedlings at the 2.5-5 leaf stage. The seedlings were then transplanted to the test plots for evaluation of the herbicide for injury against weed species present with the transplanted rice. The herbicides were then applied to the growth medium of the weeds and transplant rice, either preemergent or postemergent with respect to the weeds and postemergent with respect to the transplanted rice. Application times are designated in the tables as "DAT", meaning "days after transplant". Application rates given in the tables refer to the amount of active ingredient used.
In this example comparative field tests were conducted with Herbicides A and B on ordinary transplanted rice at Munoz, Philippines.
Twenty-one (21) day-old ordinary wet bed seedlings of the Fortuna variety were transplanted to field plots and Herbicides A and B applied at 5 DAT and 14 DAT. The field plots were overseeded with barnyardgrass (E. crusgalli) at 2 kgs/ha. Treatments were replicated four times.

[7] = test system: transplanted rice; assay: Example 2 field test, crop injury; settings: obs. 63 DAT
Description: as §2, §3
Rice seedlings (ordinary) of Tainan No. 5 variety (japonica) were transplanted at 19 days of growth. Granular formulations of Herbicides A and B were applied at the 1 leaf stage of grass weed (4 DAT) and 2.5 leaf stage of grass weed (10 DAT). Observations were made at 63 DAT and results reported in Table 2 as an average of 3 replications.

[8] = test system: Monochoria vaginalis; assay: Example 2 field test, weed control, Chia Yi, Taiwan; assay type: in vivo; settings: obs. 63 DAT
Description: as §4

CCCCOCN(C(=O)CCl)c1c(CC)cccc1CC [Herbicide B, n-(butoxymethyl)-2',6'-diethyl-2-chloroacetanilide, reference compound]
% Weed Control (Cyperus difformis) ([1]; 4 DAT, 1.0 kg/ha): 100%
% Weed Control (Cyperus difformis) ([1]; 4 DAT, 1.5 kg/ha): 100%
% Weed Control (Cyperus difformis) ([1]; 4 DAT, 3.0 kg/ha): 100%
% Weed Control (Cyperus difformis) ([1]; 10 DAT, 1.0 kg/ha): 100%
% Weed Control (Cyperus difformis) ([1]; 10 DAT, 1.5 kg/ha): 100%
% Weed Control (Cyperus difformis) ([1]; 10 DAT, 3.0 kg/ha): 100%
selectivity, A vs B, upland direct-seeded rice ([2]; particular spectrum of weeds): slightly more selective
% Weed control, Sedges (Cd, Ci, Fl) ([3]; 5 DAT, 1.0 kg/ha): 100%
% Weed control, Sedges (Cd, Ci, Fl) ([3]; 5 DAT, 1.5 kg/ha): 100%
% Weed control, Sedges (Cd, Ci, Fl) ([3]; 5 DAT, 3.0 kg/ha): 100%
% Weed control, Sedges (Cd, Ci, Fl) ([3]; 14 DAT, 1.0 kg/ha): 0%
% Weed control, Sedges (Cd, Ci, Fl) ([3]; 14 DAT, 1.5 kg/ha): 0%
% Weed control, Sedges (Cd, Ci, Fl) ([3]; 14 DAT, 3.0 kg/ha): 70%
% Weed control, Grass (Ec and Ecol) ([4]; 5 DAT, 1.0 kg/ha): 100%
% Weed control, Grass (Ec and Ecol) ([4]; 5 DAT, 1.5 kg/ha): 100%
% Weed control, Grass (Ec and Ecol) ([4]; 5 DAT, 3.0 kg/ha): 100%
% Weed control, Grass (Ec and Ecol) ([4]; 14 DAT, 1.0 kg/ha): 0%
% Weed control, Grass (Ec and Ecol) ([4]; 14 DAT, 1.5 kg/ha): 0%
% Weed control, Grass (Ec and Ecol) ([4]; 14 DAT, 3.0 kg/ha): 60%
yield depression ([5]; 1.0 kg/ha): significant yield depression
Yield (% of Hand-weeded Check) ([5]; 5 DAT, 1.0 kg/ha): 95%
Yield (% of Hand-weeded Check) ([5]; 5 DAT, 1.5 kg/ha): 100%
Yield (% of Hand-weeded Check) ([5]; 5 DAT, 3.0 kg/ha): 99%
Yield (% of Hand-weeded Check) ([5]; 10 DAT, 1.0 kg/ha): 95%
Yield (% of Hand-weeded Check) ([5]; 10 DAT, 1.5 kg/ha): 97%
Yield (% of Hand-weeded Check) ([5]; 10 DAT, 3.0 kg/ha): 100%
yield vs hand weeded check ([6]; 1.0 kg/ha, 14 DAT): statistically significantly lower than the hand weeded check
Yield (% of H.W. Check) ([6]; 5 DAT, 1.0 kg/ha): 115%
Yield (% of H.W. Check) ([6]; 5 DAT, 1.5 kg/ha): 110%
Yield (% of H.W. Check) ([6]; 5 DAT, 3.0 kg/ha): 100%
Yield (% of H.W. Check) ([6]; 14 DAT, 1.0 kg/ha): 82%
Yield (% of H.W. Check) ([6]; 14 DAT, 1.5 kg/ha): 86%
Yield (% of H.W. Check) ([6]; 14 DAT, 3.0 kg/ha): 94%
% Crop Injury, stand ([7]; 4 DAT, 1.0 kg/ha): 0%
% Crop Injury, vigor ([7]; 4 DAT, 1.0 kg/ha): 0%
% Crop Injury, stand ([7]; 4 DAT, 1.5 kg/ha): 0%
% Crop Injury, vigor ([7]; 4 DAT, 1.5 kg/ha): 0%
% Crop Injury, stand ([7]; 4 DAT, 3.0 kg/ha): 0%
% Crop Injury, vigor ([7]; 4 DAT, 3.0 kg/ha): 0%
% Crop Injury, stand ([7]; 10 DAT, 1.0 kg/ha): 0%
% Crop Injury, vigor ([7]; 10 DAT, 1.0 kg/ha): 0%
% Crop Injury, stand ([7]; 10 DAT, 1.5 kg/ha): 0%
% Crop Injury, vigor ([7]; 10 DAT, 1.5 kg/ha): 0%
% Crop Injury, stand ([7]; 10 DAT, 3.0 kg/ha): 0%
% Crop Injury, vigor ([7]; 10 DAT, 3.0 kg/ha): 0%
% Weed Control (Monochoria Vaginalis) ([8]; 4 DAT, 1.0 kg/ha): 77%
% Weed Control (Monochoria Vaginalis) ([8]; 4 DAT, 1.5 kg/ha): 94%
% Weed Control (Monochoria Vaginalis) ([8]; 4 DAT, 3.0 kg/ha): 99%
% Weed Control (Monochoria Vaginalis) ([8]; 10 DAT, 1.0 kg/ha): 65%
% Weed Control (Monochoria Vaginalis) ([8]; 10 DAT, 1.5 kg/ha): 78%
% Weed Control (Monochoria Vaginalis) ([8]; 10 DAT, 3.0 kg/ha): 89%

CCCCOCN(C(=O)CCl)c1c(C)cccc1C(C)(C)C [Herbicide A, n-(butoxymethyl)-6'-tert-butyl-2-chloro-o-acetotoluidide]
% Weed Control (Cyperus difformis) ([1]; 4 DAT, 1.0 kg/ha): 100%
% Weed Control (Cyperus difformis) ([1]; 4 DAT, 2.0 kg/ha): 100%
% Weed Control (Cyperus difformis) ([1]; 4 DAT, .25 kg/ha): 100%
% Weed Control (Cyperus difformis) ([1]; 4 DAT, .5 kg/ha): 100%
% Weed Control (Cyperus difformis) ([1]; 10 DAT, 1.0 kg/ha): 100%
% Weed Control (Cyperus difformis) ([1]; 10 DAT, 2.0 kg/ha): 100%
% Weed Control (Cyperus difformis) ([1]; 10 DAT, .25 kg/ha): 100%
% Weed Control (Cyperus difformis) ([1]; 10 DAT, .5 kg/ha): 100%
activity vs Herbicide B in direct-seeded rice ([2]; direct-seeded rice cultures): significantly more active
% Weed control, Sedges (Cd, Ci, Fl) ([3]; 5 DAT, 1.0 kg/ha): 100%
% Weed control, Sedges (Cd, Ci, Fl) ([3]; 5 DAT, 2.0 kg/ha): 100%
% Weed control, Sedges (Cd, Ci, Fl) ([3]; 5 DAT, .25 kg/ha): 100%
% Weed control, Sedges (Cd, Ci, Fl) ([3]; 5 DAT, .5 kg/ha): 100%
% Weed control, Sedges (Cd, Ci, Fl) ([3]; 14 DAT, 1.0 kg/ha): 70%
% Weed control, Sedges (Cd, Ci, Fl) ([3]; 14 DAT, 2.0 kg/ha): 70%
% Weed control, Sedges (Cd, Ci, Fl) ([3]; 14 DAT, .25 kg/ha): 0%
% Weed control, Sedges (Cd, Ci, Fl) ([3]; 14 DAT, .5 kg/ha): 70%
% Weed control, Grass (Ec and Ecol) ([4]; 5 DAT, 1.0 kg/ha): 100%
% Weed control, Grass (Ec and Ecol) ([4]; 5 DAT, 2.0 kg/ha): 100%
% Weed control, Grass (Ec and Ecol) ([4]; 5 DAT, .25 kg/ha): 100%
% Weed control, Grass (Ec and Ecol) ([4]; 5 DAT, .5 kg/ha): 100%
% Weed control, Grass (Ec and Ecol) ([4]; 14 DAT, 1.0 kg/ha): 50%
% Weed control, Grass (Ec and Ecol) ([4]; 14 DAT, 2.0 kg/ha): 90%
% Weed control, Grass (Ec and Ecol) ([4]; 14 DAT, .25 kg/ha): 0%
% Weed control, Grass (Ec and Ecol) ([4]; 14 DAT, .5 kg/ha): 50%
Yield (% of Hand-weeded Check) ([5]; in vivo): 102% and 101% and 100% and 98% and 99%
Yield (% of H.W. Check) ([6]; in vivo): 129% and 136% and 123% and 101% and 90% and 97% and 100%
rice yield vs hand weeded check ([6]; in vivo): only slightly lower than the hand weeded check
rice yield vs hand weeded control ([6]; in vivo): slightly more than the hand weeded control
% Crop Injury, stand ([7]; 4 DAT, 1.0 kg/ha): 0%
% Crop Injury, vigor ([7]; 4 DAT, 1.0 kg/ha): 0%
% Crop Injury, stand ([7]; 4 DAT, 2.0 kg/ha): 5%
% Crop Injury, vigor ([7]; 4 DAT, 2.0 kg/ha): 27%
% Crop Injury, stand ([7]; 4 DAT, .25 kg/ha): 0%
% Crop Injury, vigor ([7]; 4 DAT, .25 kg/ha): 0%
% Crop Injury, stand ([7]; 4 DAT, .5 kg/ha): 0%
% Crop Injury, vigor ([7]; 4 DAT, .5 kg/ha): 0%
% Crop Injury, stand ([7]; 10 DAT, 1.0 kg/ha): 3%
% Crop Injury, vigor ([7]; 10 DAT, 1.0 kg/ha): 7%
% Crop Injury, stand ([7]; 10 DAT, 2.0 kg/ha): 15%
% Crop Injury, vigor ([7]; 10 DAT, 2.0 kg/ha): 25%
% Crop Injury, stand ([7]; 10 DAT, .25 kg/ha): 0%
% Crop Injury, vigor ([7]; 10 DAT, .25 kg/ha): 0%
% Crop Injury, stand ([7]; 10 DAT, .5 kg/ha): 0%
% Crop Injury, vigor ([7]; 10 DAT, .5 kg/ha): 2%
% Weed Control (Monochoria Vaginalis) ([8]; 4 DAT, 1.0 kg/ha): 100%
% Weed Control (Monochoria Vaginalis) ([8]; 4 DAT, 2.0 kg/ha): 100%
% Weed Control (Monochoria Vaginalis) ([8]; 4 DAT, .25 kg/ha): 80%
% Weed Control (Monochoria Vaginalis) ([8]; 4 DAT, .5 kg/ha): 99%
% Weed Control (Monochoria Vaginalis) ([8]; 10 DAT, 1.0 kg/ha): 99%
% Weed Control (Monochoria Vaginalis) ([8]; 10 DAT, 2.0 kg/ha): 99%
% Weed Control (Monochoria Vaginalis) ([8]; 10 DAT, .25 kg/ha): 35%
% Weed Control (Monochoria Vaginalis) ([8]; 10 DAT, .5 kg/ha): 87%
